In article PMC8568899, “Molecular mechanisms of the CdnG-Cap5 antiphage defense system employing 3′,2′-cGAMP as the second messenger” (Nature Communications, 2021):
Where a chain is given by its changes, count along the chain named.

Key:
Assay in all cases: DNA degradation, agarose gel
Assay type in all cases: biochemical
AsCap5 [1] = biological target: T1, AsCap5 (Asticcacaulis sp., UniProt Z9IC27YPF2, D349A); details: activator; 10 nM cGAMP; linearized plasmid 25 nM; 1 mM MgCl2, 0.5 mM MnCl2, pH 7.4, 37 °C, 15 min
T1 construct: full length; E. coli BL21(DE3), N-terminal 6xHis-SUMO tag cut with Ulp1; codon-optimized gene; homodimer (N-terminal HNH, C-terminal SAVED)
T1 sequence (Z9IC27YPF2 1-384 D349A): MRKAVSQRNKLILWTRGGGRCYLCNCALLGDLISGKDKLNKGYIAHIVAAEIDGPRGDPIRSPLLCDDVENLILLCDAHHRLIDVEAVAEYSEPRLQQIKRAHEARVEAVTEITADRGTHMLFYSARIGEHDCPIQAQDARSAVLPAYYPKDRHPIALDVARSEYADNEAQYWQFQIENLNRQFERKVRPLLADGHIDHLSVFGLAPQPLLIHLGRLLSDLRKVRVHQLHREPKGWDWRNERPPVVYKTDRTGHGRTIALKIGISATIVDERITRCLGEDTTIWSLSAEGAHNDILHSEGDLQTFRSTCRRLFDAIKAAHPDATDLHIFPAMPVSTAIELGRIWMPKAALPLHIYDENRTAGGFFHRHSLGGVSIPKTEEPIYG

AsCap5 [2] = biological target: T2, AsCap5 (Asticcacaulis sp., UniProt Z9IC27YPF2, K347A); details: activator; 10 nM cGAMP; linearized plasmid 25 nM; 1 mM MgCl2, 0.5 mM MnCl2, pH 7.4, 37 °C, 15 min
T2 construct: full length; E. coli BL21(DE3), N-terminal 6xHis-SUMO tag cut with Ulp1; codon-optimized gene; homodimer (N-terminal HNH, C-terminal SAVED)
T2 sequence (Z9IC27YPF2 1-384 K347A): T1 sequence (Z9IC27YPF2 1-384 D349A) with K347A, A349D

LlCap5 [3] = biological target: T3, LlCap5 (Lactococcus cremoris, UniProt A0A1E7G0A2); details: activator; 50 nM Cap5, linearized plasmid 25 nM; 1 mM MgCl2, 0.5 mM MnCl2, pH 7.4, 37 °C, 15 min; 10-fold dilution steps
T3 construct: gene AJ89_14580; full length; E. coli BL21(DE3), N-terminal 6xHis-SUMO tag cut with Ulp1; codon-optimized gene; homodimer (N-terminal HNH, C-terminal SAVED)

AsCap5 [4] = biological target: T4, AsCap5 (Asticcacaulis sp., UniProt Z9IC27YPF2, K347R); details: activator; 10 nM cGAMP; linearized plasmid 25 nM; 1 mM MgCl2, 0.5 mM MnCl2, pH 7.4, 37 °C, 15 min
T4 construct: full length; E. coli BL21(DE3), N-terminal 6xHis-SUMO tag cut with Ulp1; codon-optimized gene; homodimer (N-terminal HNH, C-terminal SAVED)
T4 sequence (Z9IC27YPF2 1-384 K347R): T1 sequence (Z9IC27YPF2 1-384 D349A) with K347R, A349D

AsCap5 [5] = biological target: T5, AsCap5 (Asticcacaulis sp., UniProt Z9IC27YPF2, K347Q); details: activator; 10 nM cGAMP; linearized plasmid 25 nM; 1 mM MgCl2, 0.5 mM MnCl2, pH 7.4, 37 °C, 15 min
T5 construct: full length; E. coli BL21(DE3), N-terminal 6xHis-SUMO tag cut with Ulp1; codon-optimized gene; homodimer (N-terminal HNH, C-terminal SAVED)
T5 sequence (Z9IC27YPF2 1-384 K347Q): T1 sequence (Z9IC27YPF2 1-384 D349A) with K347Q, A349D

AsCap5 [6] = biological target: T6, AsCap5 (Asticcacaulis sp., UniProt Z9IC27YPF2); details: activator; 50 nM Cap5, linearized plasmid 25 nM; 1 mM MgCl2, 0.5 mM MnCl2, pH 7.4, 37 °C, 15 min; 10-fold dilution steps
T6 construct: full length; E. coli BL21(DE3), N-terminal 6xHis-SUMO tag cut with Ulp1; codon-optimized gene; homodimer (N-terminal HNH, C-terminal SAVED)
T6 sequence (Z9IC27YPF2 1-384): T1 sequence (Z9IC27YPF2 1-384 D349A) with A349D

AsCap5 [7] = biological target: T7, AsCap5 (Asticcacaulis sp., UniProt Z9IC27YPF2, R310K); details: activator; 10 nM cGAMP; linearized plasmid 25 nM; 1 mM MgCl2, 0.5 mM MnCl2, pH 7.4, 37 °C, 15 min
T7 construct: full length; E. coli BL21(DE3), N-terminal 6xHis-SUMO tag cut with Ulp1; codon-optimized gene; homodimer (N-terminal HNH, C-terminal SAVED)
T7 sequence (Z9IC27YPF2 1-384 R310K): T1 sequence (Z9IC27YPF2 1-384 D349A) with R310K, A349D

AsCap5 [8] = biological target: T8, AsCap5 (Asticcacaulis sp., UniProt Z9IC27YPF2, D220A); details: activator; 10 nM cGAMP; linearized plasmid 25 nM; 1 mM MgCl2, 0.5 mM MnCl2, pH 7.4, 37 °C, 15 min
T8 construct: full length; E. coli BL21(DE3), N-terminal 6xHis-SUMO tag cut with Ulp1; codon-optimized gene; homodimer (N-terminal HNH, C-terminal SAVED)
T8 sequence (Z9IC27YPF2 1-384 D220A): T1 sequence (Z9IC27YPF2 1-384 D349A) with D220A, A349D

AsCap5 [9] = biological target: T9, AsCap5 (Asticcacaulis sp., UniProt Z9IC27YPF2, R310Q); details: activator; 10 nM cGAMP; linearized plasmid 25 nM; 1 mM MgCl2, 0.5 mM MnCl2, pH 7.4, 37 °C, 15 min
T9 construct: full length; E. coli BL21(DE3), N-terminal 6xHis-SUMO tag cut with Ulp1; codon-optimized gene; homodimer (N-terminal HNH, C-terminal SAVED)
T9 sequence (Z9IC27YPF2 1-384 R310Q): T1 sequence (Z9IC27YPF2 1-384 D349A) with R310Q, A349D

AsCap5 [10] = biological target: T6, AsCap5; details: activator; 50 nM Cap5, linearized plasmid 25 nM; 1 mM MgCl2, 0.5 mM MnCl2, pH 7.4, 37 °C, 15 min; 10-fold dilution steps; remark: listed apart in the source
LlCap5 [11] = biological target: T3, LlCap5; details: activator; 50 nM Cap5, linearized plasmid 25 nM; 1 mM MgCl2, 0.5 mM MnCl2, pH 7.4, 37 °C, 15 min; 10-fold dilution steps; remark: listed apart in the source

T3 sequence (A0A1E7G0A2 entry or part of it): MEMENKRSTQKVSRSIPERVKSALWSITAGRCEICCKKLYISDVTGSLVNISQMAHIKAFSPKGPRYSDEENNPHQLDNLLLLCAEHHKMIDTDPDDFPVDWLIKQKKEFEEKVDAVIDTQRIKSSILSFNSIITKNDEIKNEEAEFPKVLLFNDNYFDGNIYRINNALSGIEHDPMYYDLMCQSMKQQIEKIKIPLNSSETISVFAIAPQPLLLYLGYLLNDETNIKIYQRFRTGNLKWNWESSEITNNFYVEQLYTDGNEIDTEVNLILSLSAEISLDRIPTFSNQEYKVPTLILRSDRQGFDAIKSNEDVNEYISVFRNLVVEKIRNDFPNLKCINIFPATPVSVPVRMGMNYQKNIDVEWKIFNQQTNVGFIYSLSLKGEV

Row | % reduction of activity (AsCap5 [2]) | concentration giving significant DNA degradation (LlCap5 [3]) | fold less active than wild type (AsCap5 [4]) | concentration giving significant DNA degradation (AsCap5 [6]) | estimated activity (% of wild type) (AsCap5 [8]) | concentration giving same degradation as 10 nM 3′,2′-cGAMP (AsCap5 [10]) | concentration giving same degradation as 10 nM 3′,2′-cGAMP (LlCap5 [11]) | SMILES | estimated activity (AsCap5 [1]) | estimated activity (AsCap5 [5]) | estimated activity (AsCap5 [7]) | estimated activity (AsCap5 [9])
1 | ~ 98% | ~ 10 nM | ~ 10 fold | ~ 10 nM | ~ 15% | – | – | Nc1nc2c(ncn2[C@@H]2O[C@@H]3COP(=O)(O)O[C@@H]4[C@H](O)[C@@H](COP(=O)(O)O[C@H]3[C@H]2O)O[C@H]4n2cnc3c(N)ncnc32)c(=O)[nH]1 [3′,2′-cGAMP] | D349A mutation showed a similar degree of reduced activity as D220A mutation | it was even less active than K347A mutant | R310K and R310Q mutants, and both also showed significantly reduced activities | R310K and R310Q mutants, and both also showed significantly reduced activities
2 | – | – | – | – | – | ~ 100 μM | ~ 100 μM | Nc1nc2c(ncn2[C@@H]2O[C@@H]3COP(=O)(O)O[C@H]4[C@@H](O)[C@H](n5cnc6c(N)ncnc65)O[C@@H]4COP(=O)(O)O[C@H]3[C@H]2O)c(=O)[nH]1 [3′,3′-cGAMP] | – | – | – | –
